This test has as its target T1, cryptococcal urease (Cryptococcus neoformans, UniProt O13465).
T1 construct: 100 μL of crude protein extract; endogenous in cells; host or cells: Cryptococcus neoformans ATCC 34872, crude lysate (glass-bead lysis, supernatant)
In words: Urease activity inhibition test (indophenol method, crude protein extract). The test is classed as biochemical. To be noted: C. neoformans ATCC 34872 crude protein extract; indophenol method. Here is the method:
Five colonies of C. neoformans were suspended in 100 μL SD broth and inoculated onto SD agar using a Drigalski spreader, and the culture was incubated at 37°C for 48 h. Afterward, all fungal growth was gently scraped and transferred to conical flasks containing 300 mL of SD broth and incubated with shaking (150 rpm) at 37°C for further 48 h. Cells were centrifuged (6,000 × g, 10 min) and washed three times with distilled water. The protein extraction was performed according to [Moller et al. (2016)] with modifications. Briefly, fungal cells were resuspended in 10 mL of chilled lysis buffer consisting of 100 μM Nα-tosyl-L-lysine chloromethyl ketone hydrochloride (TLCK), 1 mM EDTA, 10% glycerol and 0.15 M phosphate-buffered saline (PBS), pH 8.0. […] Then, the cell debris was removed by centrifugation (6,000 × g, 15 min, 4°C), and the protein content of the resulting supernatant was quantified using the […].
The inhibition of urease activity was evaluated by the indophenol method ([Weatherburn, 1967]). […] The reaction mixtures were incubated for further 10 min at 45°C, and the optical density (OD) was measured at 630 nm. Urease inhibition percentage (I%) was calculated according to the equation: I% = 100–(ODBTU–01/ODcontrol) × 100. […]

Converted amounts (≈) assume the structure as drawn.

T1 sequence (O13465 whole entry): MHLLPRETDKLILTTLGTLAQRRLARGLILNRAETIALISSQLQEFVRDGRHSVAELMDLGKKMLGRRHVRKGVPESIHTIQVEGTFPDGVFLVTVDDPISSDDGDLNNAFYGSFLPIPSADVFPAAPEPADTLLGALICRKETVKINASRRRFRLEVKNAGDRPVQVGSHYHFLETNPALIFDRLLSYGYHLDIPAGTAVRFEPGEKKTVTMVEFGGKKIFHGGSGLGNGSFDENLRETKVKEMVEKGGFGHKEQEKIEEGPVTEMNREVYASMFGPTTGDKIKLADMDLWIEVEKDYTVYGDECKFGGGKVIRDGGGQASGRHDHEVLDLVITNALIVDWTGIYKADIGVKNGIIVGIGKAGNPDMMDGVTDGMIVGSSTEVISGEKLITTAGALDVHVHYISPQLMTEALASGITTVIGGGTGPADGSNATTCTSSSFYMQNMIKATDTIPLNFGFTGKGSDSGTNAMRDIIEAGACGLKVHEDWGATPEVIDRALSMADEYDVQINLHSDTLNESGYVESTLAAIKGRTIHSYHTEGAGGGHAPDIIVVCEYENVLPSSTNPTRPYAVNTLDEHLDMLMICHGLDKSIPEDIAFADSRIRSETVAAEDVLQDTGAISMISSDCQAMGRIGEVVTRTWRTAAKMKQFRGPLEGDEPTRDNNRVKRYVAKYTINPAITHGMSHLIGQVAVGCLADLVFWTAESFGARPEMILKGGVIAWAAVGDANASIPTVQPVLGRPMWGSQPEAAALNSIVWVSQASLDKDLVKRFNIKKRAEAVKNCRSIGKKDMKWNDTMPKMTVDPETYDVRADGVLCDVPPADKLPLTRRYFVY

As for `NC(N)=S` [thiourea, Thiourea, reference compound], the IC50 urease activity turned out to be 38.6 µg/mL (≈ 507 µM).

These data come from paper PMC10028264, “Synergistic antifungal interaction of N-(butylcarbamothioyl) benzamide and amphotericin B against Cryptococcus neoformans” (Frontiers in Microbiology, 2023).
